# Data published in patent US20150105252A1, “SUBSTITUTED PYRAZOLES AS HERBICIDES” (E I DU PONT DE NEMOURS AND COMPANY, priority 2013, published 2015).
# What was measured:
# ryegrass, Italian = experiment: Test C preemergence; assay type: in vivo, Lolium multiflorum; details: for Ryegrass, Italian plant response rating / Plant response rating, Ryegrass, Italian: preemergence; for Plant response rating, Ryegrass, Italian: 125 g ai/ha, scale 0 to 100, 0 = no effect, 100 = complete control
# Method in brief: (§1)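 Visual rating, 0–100 scale (0 no effect, 100 complete control), vs untreated controls after 13–15 d greenhouse. Pre: seeds in loam/sand, treated at sowing. Post: plants in peat-based mix, 1- to 4-leaf (2–18 cm). Solvent + surfactant formulation, non-phytotoxic.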
# pigweed [1] = experiment: Test A preemergence; assay type: in vivo, Amaranthus retroflexus; details: preemergence
# Method in brief: (§2)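 Both timings tested concurrently in loam/sand soil: preemergence by directed soil spray, postemergence on plants of 2–10 cm at the one- to two-leaf stage. Greenhouse holding period was approximately 10 days before visual injury assessment (0–100, 0 = no effect).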
# pigweed [2] = experiment: Test C preemergence; assay type: in vivo, Amaranthus retroflexus; details: for Pigweed plant response rating / Plant response rating, Pigweed: preemergence; for Plant response rating, Pigweed: 125 g ai/ha, scale 0 to 100, 0 = no effect, 100 = complete control
# Method in brief: as §1
# crabgrass, large = experiment: Test C preemergence; assay type: in vivo, Digitaria sanguinalis; details: for Crabgrass, Large plant response rating / Plant response rating, Crabgrass, Large: preemergence; for Plant response rating, Crabgrass, Large: 125 g ai/ha, scale 0 to 100, 0 = no effect, 100 = complete control
# Method in brief: as §1
# morningglory [3] = experiment: Test A postemergence; assay type: in vivo, Ipomoea spp.
# Method in brief: as §2
# corn = experiment: Test A postemergence; assay type: in vivo, Zea mays
# Method in brief: as §2
# sedge, umbrella = experiment: Test B flood; assay type: in vivo, Cyperus difformis; details: 250 g ai/ha, visual rating on 0 to 100 scale (0 no effect, 100 complete control), 13 to 15 days
# Method in brief: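 At two leaves, seedlings received the test compound via the paddy water, pots having been flooded 3 cm over the soil surface and kept so. Greenhouse-held for 13 to 15 days, then judged by eye against controls on a scale running 0 (no effect) to 100 (complete control).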
# soybean = experiment: Test C preemergence; assay type: in vivo, Glycine max; details: for Soybean plant response rating / Plant response rating, Soybean: preemergence; for Plant response rating, Soybean: 125 g ai/ha, scale 0 to 100, 0 = no effect, 100 = complete control
# Method in brief: as §1
# morningglory [4] = experiment: Test A preemergence; assay type: in vivo, Ipomoea spp.; details: preemergence
# Method in brief: as §2
# velvetleaf = experiment: Test A postemergence; assay type: in vivo, Abutilon theophrasti
# Method in brief: as §2
# morningglory [5] = experiment: Test C preemergence; assay type: in vivo, Ipomoea coccinea; details: for Morningglory plant response rating / Plant response rating, Morningglory: preemergence; for Plant response rating, Morningglory: 125 g ai/ha, scale 0 to 100, 0 = no effect, 100 = complete control
# Method in brief: as §1
# foxtail, giant = experiment: Test A postemergence; assay type: in vivo, Setaria faberii
# Method in brief: as §2
# galium = experiment: Test C preemergence; assay type: in vivo, Galium aparine; details: for Galium plant response rating / Plant response rating, Galium: preemergence; for Plant response rating, Galium: 125 g ai/ha, scale 0 to 100, 0 = no effect, 100 = complete control
# Method in brief: as §1
# nutsedge, yellow = experiment: Test C preemergence; assay type: in vivo, Cyperus esculentus; details: for Nutsedge, Yellow plant response rating / Plant response rating, Nutsedge, Yellow: preemergence; for Plant response rating, Nutsedge, Yellow: 125 g ai/ha, scale 0 to 100, 0 = no effect, 100 = complete control
# Method in brief: as §1
# [6] = 31 g ai/ha, visual rating, scale 0 to 100 (0 no effect, 100 complete control), 13 to 15 days
# [7] = 62 g ai/ha, scale 0 to 100 (0 no effect, 100 complete control), 13 to 15 days
# [8] = 125 g ai/ha, visual injury, 0 to 100 scale, approx. 10 days
# [9] = 500 g ai/ha, visual injury after approx. 10 days, 0 to 100 scale (0 no effect, 100 complete control)
# [10] = Postemergence, 500 g ai/ha, 0 to 100 scale (0 no effect, 100 complete control)
# [11] = postemergence, 125 g ai/ha, about 10 days, visual rating on 0 to 100 scale (0 no effect, 100 complete control)
# [12] = 250 g ai/ha, scale 0 to 100, 0 is no effect, 100 is complete control
# [13] = 125 g ai/ha, visual injury approx. 10 days after treatment
# [14] = Postemergence, 125 g ai/ha, 0 to 100 scale, 0 no effect, 100 complete control
structure (smiles),measurement,setting,value
CCNC(=O)c1cc(CC)n(Cc2ccnc(OC(F)F)c2)n1 [Compound 130],"Plant response rating (scale of 0 to 100), Ryegrass, Italian","ryegrass, Italian; Preemergence, 250 g ai/ha",98
same,"Ryegrass, Italian plant response rating","ryegrass, Italian; [6]",5
same,"Ryegrass, Italian plant response rating","ryegrass, Italian; [7]",25
same,"Plant response rating, Ryegrass, Italian","ryegrass, Italian; 13 to 15 days",65
same,Pigweed plant response rating,pigweed [1]; [8],100
same,Pigweed plant response rating,pigweed [1]; [9],100
same,"Plant response rating (scale of 0 to 100), Pigweed","pigweed [2]; Preemergence, 250 g ai/ha",100
same,Pigweed plant response rating,pigweed [2]; [6],100
same,Pigweed plant response rating,pigweed [2]; [7],100
same,"Plant response rating, Pigweed",pigweed [2]; 13 to 15 days,100
same,"Plant response rating (scale of 0 to 100), Crabgrass, Large","crabgrass, large; Preemergence, 250 g ai/ha",100
same,"Crabgrass, Large plant response rating","crabgrass, large; [6]",100
same,"Crabgrass, Large plant response rating","crabgrass, large; [7]",100
same,"Plant response rating, Crabgrass, Large","crabgrass, large; 13 to 15 days",100
same,Morningglory plant response rating,morningglory [3]; [10],100
same,Morningglory plant response rating,morningglory [3]; [11],90
same,Corn plant response rating,corn; [10],90
same,Corn plant response rating,corn; [11],70
same,"Plant response rating, Sedge, Umbrella","sedge, umbrella",90
same,"Plant response rating (scale of 0 to 100), Soybean","soybean; Preemergence, 250 g ai/ha",98
same,Soybean plant response rating,soybean; [6],10
same,Soybean plant response rating,soybean; [7],55
same,"Plant response rating, Soybean",soybean; 13 to 15 days,90
same,Morningglory plant response rating,morningglory [4]; [8],100
same,Morningglory plant response rating,morningglory [4]; [9],100
same,Velvetleaf plant response rating,velvetleaf; [10],100
same,Velvetleaf plant response rating,velvetleaf; [11],80
same,"Plant response rating (scale of 0 to 100), Morningglory","morningglory [5]; Preemergence, 250 g ai/ha",100
same,Morningglory plant response rating,morningglory [5]; [6],65
same,Morningglory plant response rating,morningglory [5]; [7],98
same,"Plant response rating, Morningglory",morningglory [5]; 13 to 15 days,100
same,"Foxtail, Giant plant response rating","foxtail, giant; [10]",90
same,"Foxtail, Giant plant response rating","foxtail, giant; [11]",60
same,"Plant response rating (scale of 0 to 100), Galium","galium; Preemergence, 250 g ai/ha",100
same,Galium plant response rating,galium; [6],75
same,Galium plant response rating,galium; [7],85
same,"Plant response rating, Galium",galium; 13 to 15 days,98
same,"Plant response rating (scale of 0 to 100), Nutsedge, Yellow","nutsedge, yellow; Preemergence, 250 g ai/ha",75
same,"Nutsedge, Yellow plant response rating","nutsedge, yellow; [6]",25
same,"Nutsedge, Yellow plant response rating","nutsedge, yellow; [7]",65
same,"Plant response rating, Nutsedge, Yellow","nutsedge, yellow; 13 to 15 days",75
CCNC(=O)c1cc(CC)n(Cc2ccnc(C(F)(F)F)c2)n1 [Compound 196],"Ryegrass, Italian plant response rating","ryegrass, Italian; [6]",30
same,"Ryegrass, Italian plant response rating","ryegrass, Italian; [7]",85
same,"Plant response rating, Ryegrass, Italian","ryegrass, Italian; 13 to 15 days",90
same,"Ryegrass, Italian plant response rating","ryegrass, Italian; [12]",90
same,Pigweed plant response rating (0 to 100 scale),pigweed [1]; [13],100
same,Pigweed plant response rating,pigweed [1]; [9],100
same,Pigweed plant response rating,pigweed [2]; [6],98
same,Pigweed plant response rating,pigweed [2]; [7],98
same,"Plant response rating, Pigweed",pigweed [2]; 13 to 15 days,100
same,Pigweed plant response rating,pigweed [2]; [12],100
same,"Crabgrass, Large plant response rating","crabgrass, large; [6]",98
same,"Crabgrass, Large plant response rating","crabgrass, large; [7]",98
same,"Plant response rating, Crabgrass, Large","crabgrass, large; 13 to 15 days",100
same,"Crabgrass, Large plant response rating","crabgrass, large; [12]",100
same,Morningglory plant response rating,morningglory [3]; [14],90
same,Morningglory plant response rating,morningglory [3]; [10],100
same,Corn plant response rating,corn; [10],90
same,Corn plant response rating,corn; [11],80
same,"Plant response rating, Sedge, Umbrella","sedge, umbrella",70
same,Soybean plant response rating,soybean; [6],40
same,Soybean plant response rating,soybean; [7],55
same,"Plant response rating, Soybean",soybean; 13 to 15 days,90
same,Soybean plant response rating,soybean; [12],98
same,Morningglory plant response rating (0 to 100 scale),morningglory [4]; [13],100
same,Morningglory plant response rating,morningglory [4]; [9],100
same,Velvetleaf plant response rating,velvetleaf; [14],80
same,Velvetleaf plant response rating,velvetleaf; [10],100
same,Morningglory plant response rating,morningglory [5]; [6],98
same,Morningglory plant response rating,morningglory [5]; [7],98
same,"Plant response rating, Morningglory",morningglory [5]; 13 to 15 days,100
same,Morningglory plant response rating,morningglory [5]; [12],100
same,"Foxtail, Giant plant response rating","foxtail, giant; [10]",100
same,"Foxtail, Giant plant response rating","foxtail, giant; [11]",90
same,Galium plant response rating,galium; [6],98
same,Galium plant response rating,galium; [7],95
same,"Plant response rating, Galium",galium; 13 to 15 days,100
same,Galium plant response rating,galium; [12],100
same,"Nutsedge, Yellow plant response rating","nutsedge, yellow; [6]",15
same,"Nutsedge, Yellow plant response rating","nutsedge, yellow; [7]",65
same,"Plant response rating, Nutsedge, Yellow","nutsedge, yellow; 13 to 15 days",80
same,"Nutsedge, Yellow plant response rating","nutsedge, yellow; [12]",90
